According to patent US6774220B1, “Compounds having lectinic properties and their biological applications” (Association pour le Développement de la Biothérapie …, priority 1995, dated 2004):

B1: SCL: SCL excreted in the H-1 medium by PBMC over 24 hours maintained without serum (protein)
chain: SIHFSSPVFTSRSAAFSGRGAQVRLSSARPGGLGSSSLYGLGASRPRVAVRSAYGGPVGAGIREVTINQSLLAPLRLGADPFSQRVRQEESEQIKTLNNKFASFIDKVRFLEQQNKLLETKWTLLQEQKSAKSSRLPDIFEAQIAGLRGQLEAMQVDGGRLEQGLRTMQDVVEDFKNKYEDEINRRTAAENEFVVLKKDVDAAYMSKVELEAKVDALNDEINFLRTLNETELTELQSQISDTSVVLSMDNSRSLDLDGIIAEVKAQYEEMAKCSRAEAEAWYQTKFETLQAQAGKHGDDLRNTRNEISEMNRAIQRLQAEIDNIKNQRAKLEAAIAEAEERGELALKDARAKQEELEAALQRAKQDMARQLREYQELMSVKLALDIEIATYRKLLEGEESRLAGDGVGAANISVMNSTGGSSSGGGIGLTLGGTMGSNALSFSSSAGPGLLKAYSIRTASASRRSTRD

Assays:
[1] = system: encephalomyocarditis virus (EMC); assay: Protection of IFN against the encephalomyocarditis virus in Swiss mice, with SCL inhibiting sugars; assay type: in vivo; conditions: EMC virus i.p.
Protocol: The model used is the encephalomyocarditis virus (EMC) which kills mice in practically all cases after rather varying but relatively short incubation periods.
Male mice (average weight: […], aged 8 to 10 weeks) were injected i.p. with sodium galacturonate, glucosamine and N-acetylneuraminic acid (5 to 10% solutions containing 100 mM sugar). 24 hours afterwards, one hundred lethal doses (50%) of EMC virus are injected by the same route. After one hour, murine interferon is injected (in a dose of 20,000 units in 0.5 ml). Table 3 gives the number of animals surviving out of the total tested, the percentage and statistical significance.

TG-180 tumour cells = assay: Antitumour action on grafted TG-180 ascitic tumour
Protocol: In order to test the antitumour capacity of SCL inhibiting sugars, TG-180 tumour cells originating from a tumour resistant to chemical metabolic inhibitors was grafted. In a concentration of 3×10^6 cells injected i.p. into 20 gr Swiss mice, an ascitic tumour is obtained which is detectable in 10 days and kills practically 100% of the animals in 21-25 days.
In parallel series, the various groups of animals were treated 3 days after inoculation, either with a specific sugar (glucosamine, lactose, galacturonate, N.A.N.A., neuramine-lactose) in a 5 to 10% solution, the sugar concentration being 100 mM, or with the same treatment in association with an injection of immuno-stimulant (extract of corynebacterium parvum, Merieux, France), in a dose of 200 g/mouse, or interferon, or both.
4 groups of mice per experiment were used.
They are assessed by the percentage of tumours that appeared on the 10th day, the mean survival time of the animals (MST) in. days, and the final survival (as a percentage).

T (lympho) cells = assay: Stimulation over 24 hours of the synthesis of DNA in T (lympho) cells; assay type: cell-based
Protocol: XI Stimulation over 24 hours of the synthesis of DNA in T (lympho) cells

[2] = single agent (+MEM, or IFN in reference group)
[3] = IL2 (100 u) +SCL + inhibitor (NANA 0.75 mmol.; oligo 41-55 3 μγ/ml)

Molecule | number of animals surviving out of the total number tested [1, 2] | percentage surviving [1, 2] | number of animals surviving out of the total number tested ([1]; sugar +IFN (20,000 units)) | percentage surviving ([1]; sugar +IFN (20,000 units)) | Final survival (%) (TG-180 tumour cells; +CP) | Final survival, Number (TG-180 tumour cells; +CP) | MST (mean survival time) (TG-180 tumour cells; +CP) | Tumours on 10th day (%) (TG-180 tumour cells; +CP) | Tumours on 10th day, number (TG-180 tumour cells; +CP) | Final survival (%) (TG-180 tumour cells; +CP +IFN) | Final survival, Number (TG-180 tumour cells; +CP +IFN) | MST (mean survival time) (TG-180 tumour cells; +CP +IFN) | Tumours on 10th day (%) (TG-180 tumour cells; +CP +IFN) | Tumours on 10th day, number (TG-180 tumour cells; +CP +IFN) | Final survival (%) (TG-180 tumour cells; +IFN) | Final survival, Number (TG-180 tumour cells; +IFN) | MST (mean survival time) (TG-180 tumour cells; +IFN) | Tumours on 10th day (%) (TG-180 tumour cells; +IFN) | Tumours on 10th day, number (TG-180 tumour cells; +IFN) | Final survival (%) (TG-180 tumour cells; agent alone) | also measured
N[C@H]1C(O)O[C@H](CO)[C@@H](O)[C@@H]1O (stereo partly drawn) [Glucosamine, glucosamine] | 1/30 | 3% | 14/45b | 31% | (53) % | 40 | 67 ± 8 days | 34% | 26 | (58) % | 35 | 70 ± 9 days | 28% | 17 | (17) % | 8 | 39 ± 9 days | 13% | 6 | (6) % | Final survival (%) (TG-180 tumour cells; +CP, listed as glucosamine): 53%; Final survival, Number (TG-180 tumour cells; agent alone): 1; MST (mean survival time) (TG-180 tumour cells; agent alone): 28 ± 6 days; Tumours on 10th day (%) (TG-180 tumour cells; agent alone): 20%; Tumours on 10th day, number (TG-180 tumour cells; agent alone): 3
O=C[C@H](O)[C@@H](O)[C@@H](O)[C@H](O)C(=O)[O-].[Na+] [Na galacturonate, sodium galacturonate] | 6/75 | 8% | 22/90a | 24% | (20) % | 3 | 42 ± 16 days | 13% | 2 | (73) % | 11 | 81 ± 17 days | 6% | 1 | (13) % | 2 | 34 ± 15 days | 40% | 6 | (6) % | Final survival, Number (TG-180 tumour cells; agent alone): 1; MST (mean survival time) (TG-180 tumour cells; agent alone): 31 ± 10 days; Tumours on 10th day (%) (TG-180 tumour cells; agent alone): 20%; Tumours on 10th day, number (TG-180 tumour cells; agent alone): 3
O=C([O-])C1OC(O)C(O)C(O)C1O.[Na+] (stereo not drawn) [Na glucuronate, reference compound] | 6/45 | 13% | 5/45 | 11% |  |  |  |  |  |  |  |  |  |  |  |  |  |  |  |  | anti-tumour effect (in words) (TG-180 tumour cells; TG-180 graft in mice): comparable anti-tumour effects
oligo 41-55: peptide SEQ ID NO: 5, position 41 to 55 in SEQ ID NO: 1 (GLGASRPRVAVRSAY; listed as Homo sapiens) |  |  |  |  |  |  |  |  |  |  |  |  |  |  |  |  |  |  |  |  | effect on the stimulation of DNA synthesis by SCL (in words) (T (lympho) cells; 24 hours): inhibited; synthesis of DNA, EXP. N° 1 (T (lympho) cells; [3]): 4,674 ± 832.52; synthesis of DNA, EXP. N° 2 (T (lympho) cells; [3]): 23,184 ± 2494
B1 |  |  |  |  |  |  |  |  |  |  |  |  |  |  |  |  |  |  |  |  | effect on synthesis of DNA (in words) (T (lympho) cells; 24 hours): stimulates the synthesis of DNA; synthesis of DNA, EXP. N° 1 (T (lympho) cells; IL2 (100 u) +SCL, 24 hours): 6,167 ± 483.66; synthesis of DNA, EXP. N° 2 (T (lympho) cells; IL2 (100 u) +SCL, 24 hours): 35,438 ± 10.370
